# Results from US9708314B2, “Heterocyclic amide compound” (NISSAN CHEMICAL INDUSTRIES, LTD., priority 2013, dated 2017).
# Assays:
# Format in all cases: in vivo
# [1] = system: directly sowed Oryza sativa; experiment: Test Example 3: effect on crop by application to foliage (Wagner pot, water depth 0.1-0.5 cm); details: Nineteenth Table; application to foliage; application herbicide amount 320 g/ha
# In short: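 Post-emergence foliar application at a stated g/ha rate to plants grown 14 days from seed in alluvial soil, greenhouse 25–30 °C. Visual score after 3 weeks: 0 (≤5% effect) through 5 (≥90%).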
# Abutilon theophrasti = experiment: Test Example 4: herbicidal effect by application to foliage (diluvial soil, plastic box); details: for M (Abutilon theophrasti) herbicidal effect grade: Application herbicide amount 320 g/ha, foliage application
# In short: (§1)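 Plants were grown in sterilized diluvial soil in a greenhouse at 25-30° C for 14 days, then sprayed on stems and leaves with water-diluted emulsion formulation at set rates in g/ha. Weed control and crop injury were scored 3 weeks after treatment on a 0-5 herbicidal-ratio scale, from 0 (≤5%) to 5 (≥90%).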
# Alopecurus myosuroides = experiment: as above; details: for J (Alopecurus myosuroides) herbicidal effect grade: Application herbicide amount 320 g/ha, foliage application
# In short: as §1
# Amaranthus retroflexus = experiment: as above; details: for N (Amaranthus retroflexus) herbicidal effect grade: Application herbicide amount 320 g/ha, foliage application
# In short: as §1
# Apera spica-venti. = experiment: as above; details: for L (Apera spica-venti.) herbicidal effect grade: Application herbicide amount 320 g/ha, foliage application
# In short: as §1
# Avena fatua = experiment: as above; details: for I (Avena fatua) herbicidal effect grade: Application herbicide amount 320 g/ha, foliage application
# In short: as §1
# Chenopodium album = experiment: as above; details: for O (Chenopodium album) herbicidal effect grade: Application herbicide amount 320 g/ha, foliage application
# In short: as §1
# Digitaria ciliaris = experiment: as above; details: for F (Digitaria ciliaris) herbicidal effect grade: Application herbicide amount 320 g/ha, foliage application
# In short: as §1
# [2] = system: Echinochloa crus-galli var. crus-galli; experiment: as above; details: for H (Echinochloa crus-galli var. crus-galli) herbicidal effect grade: Application herbicide amount 320 g/ha, foliage application
# In short: as §1
# Galium spurium = experiment: as above; details: for Q (Galium spurium) herbicidal effect grade: Application herbicide amount 320 g/ha, foliage application
# In short: as §1
# Lolium multiflorum Lam. = experiment: as above; details: for K (Lolium multiflorum Lam.) herbicidal effect grade: Application herbicide amount 320 g/ha, foliage application
# In short: as §1
# Setaria viridis = experiment: as above; details: for G (Setaria viridis) herbicidal effect grade: Application herbicide amount 320 g/ha, foliage application
# In short: as §1
# Stellaria media = experiment: as above; details: for P (Stellaria media) herbicidal effect grade: Application herbicide amount 320 g/ha, foliage application
# In short: as §1
# Veronica persica = experiment: as above; details: for R (Veronica persica) herbicidal effect grade: Application herbicide amount 320 g/ha, foliage application
# In short: as §1
# [3] = application to foliage, application herbicide amount 320 g/ha
SMILES,b (effect on crop grade) [1],M (Abutilon theophrasti) herbicidal effect grade (Abutilon theophrasti),J (Alopecurus myosuroides) herbicidal effect grade (Alopecurus myosuroides),N (Amaranthus retroflexus) herbicidal effect grade (Amaranthus retroflexus),L (Apera spica-venti.) herbicidal effect grade (Apera spica-venti.),I (Avena fatua) herbicidal effect grade (Avena fatua),O (Chenopodium album) herbicidal effect grade (Chenopodium album),F (Digitaria ciliaris) herbicidal effect grade (Digitaria ciliaris),H (Echinochloa crus-galli var. crus-galli) herbicidal effect grade [2],Q (Galium spurium) herbicidal effect grade (Galium spurium),K (Lolium multiflorum Lam.) herbicidal effect grade (Lolium multiflorum Lam.),G (Setaria viridis) herbicidal effect grade (Setaria viridis),P (Stellaria media) herbicidal effect grade (Stellaria media),R (Veronica persica) herbicidal effect grade (Veronica persica),also measured
CCN(C)c1nnc2c(C(=O)Nc3nnco3)ccc(C(F)(F)F)n12 [1-137],3 (Herbicidal ratio of 40% or more and less than 70%),3 (Herbicidal ratio of 40% or more and less than 70%),2 (Herbicidal ratio of 20% or more and less than 40%),4 (Herbicidal ratio of 70% or more and less than 90%),4 (Herbicidal ratio of 70% or more and less than 90%),3 (Herbicidal ratio of 40% or more and less than 70%),5 (Herbicidal ratio of 90% or more (almost completely withered)),4 (Herbicidal ratio of 70% or more and less than 90%),5 (Herbicidal ratio of 90% or more (almost completely withered)),3 (Herbicidal ratio of 40% or more and less than 70%),2 (Herbicidal ratio of 20% or more and less than 40%),5 (Herbicidal ratio of 90% or more (almost completely withered)),5 (Herbicidal ratio of 90% or more (almost completely withered)),5 (Herbicidal ratio of 90% or more (almost completely withered)),–
Cc1nnc(NC(=O)c2ccc(C(F)(F)F)n3c(SCC4CCCO4)nnc23)o1 (centres unmarked) [1-116],0 (Herbicidal ratio of 5% or less (almost no effect)),4 (Herbicidal ratio of 70% or more and less than 90%),1 (Herbicidal ratio of 5% or more and less than 20%),4 (Herbicidal ratio of 70% or more and less than 90%),1 (Herbicidal ratio of 5% or more and less than 20%),3 (Herbicidal ratio of 40% or more and less than 70%),5 (Herbicidal ratio of 90% or more (almost completely withered)),5 (Herbicidal ratio of 90% or more (almost completely withered)),5 (Herbicidal ratio of 90% or more (almost completely withered)),3 (Herbicidal ratio of 40% or more and less than 70%),1 (Herbicidal ratio of 5% or more and less than 20%),4 (Herbicidal ratio of 70% or more and less than 90%),5 (Herbicidal ratio of 90% or more (almost completely withered)),4 (Herbicidal ratio of 70% or more and less than 90%),–
Cc1nnc(NC(=O)c2ccc(C(F)(F)F)n3c(SCc4ccccc4)nnc23)o1 [1-113],0 (Herbicidal ratio of 5% or less (almost no effect)),1 (Herbicidal ratio of 5% or more and less than 20%),0 (Herbicidal ratio of 5% or less (almost no effect)),3 (Herbicidal ratio of 40% or more and less than 70%),0 (Herbicidal ratio of 5% or less (almost no effect)),0 (Herbicidal ratio of 5% or less (almost no effect)),5 (Herbicidal ratio of 90% or more (almost completely withered)),1 (Herbicidal ratio of 5% or more and less than 20%),2 (Herbicidal ratio of 20% or more and less than 40%),0 (Herbicidal ratio of 5% or less (almost no effect)),0 (Herbicidal ratio of 5% or less (almost no effect)),0 (Herbicidal ratio of 5% or less (almost no effect)),4 (Herbicidal ratio of 70% or more and less than 90%),3 (Herbicidal ratio of 40% or more and less than 70%),–
Cn1nnnc1NC(=O)c1ccc(C(F)(F)F)n2c(COCC(F)(F)F)nnc12 [2-015],4 (Herbicidal ratio of 70% or more and less than 90%),–,–,–,–,–,–,–,–,–,–,–,–,–,"M: herbicidal effect on Abutilon theophrasti (Abutilon theophrasti; [3]): 5 (Herbicidal ratio of 90% or more (almost completely withered)); J: herbicidal effect on Alopecurus myosuroides (Alopecurus myosuroides; [3]): 2 (Herbicidal ratio of 20% or more and less than 40%); N: herbicidal effect on Amaranthus retroflexus (Amaranthus retroflexus; [3]): 5 (Herbicidal ratio of 90% or more (almost completely withered)); L: herbicidal effect on Apera spica-venti. (Apera spica-venti.; [3]): 2 (Herbicidal ratio of 20% or more and less than 40%); I: herbicidal effect on Avena fatua (Avena fatua; [3]): 2 (Herbicidal ratio of 20% or more and less than 40%); O: herbicidal effect on Chenopodium album (Chenopodium album; [3]): 5 (Herbicidal ratio of 90% or more (almost completely withered)); F: herbicidal effect on Digitaria ciliaris (Digitaria ciliaris; [3]): 5 (Herbicidal ratio of 90% or more (almost completely withered)); H: herbicidal effect on Echinochloa crus-galli var. crus-galli [2, 3]: 5 (Herbicidal ratio of 90% or more (almost completely withered)); Q: herbicidal effect on Galium spurium (Galium spurium; [3]): 3 (Herbicidal ratio of 40% or more and less than 70%); K: herbicidal effect on Lolium multiflorum Lam. (Lolium multiflorum Lam.; [3]): 2 (Herbicidal ratio of 20% or more and less than 40%); G: herbicidal effect on Setaria viridis (Setaria viridis; [3]): 4 (Herbicidal ratio of 70% or more and less than 90%); P: herbicidal effect on Stellaria media (Stellaria media; [3]): 4 (Herbicidal ratio of 70% or more and less than 90%); R: herbicidal effect on Veronica persica (Veronica persica; [3]): 3 (Herbicidal ratio of 40% or more and less than 70%)"
